Measured values published in ChEMBL document CHEMBL3425496, “Exploring experimental and computational markers of cyclic peptides: Charting islands of permeability” (Eur J Med Chem, 2015).
Square brackets hold non-standard residues; d marks the D form. Peptide text beside a SMILES is read from it. NMeL = CN[C@@H](CC(C)C)C(=O)O; Sar = CNCC(=O)O

What was measured:
[1] = Apparent permeability of the compound at 50 uM after 5 hrs by PAMPA method; type: physicochemical
[2] = Apparent permeability from apical to basolateral side in human Caco2 cells by LC-MS analysis; type: ADME, cell-based; settings: Caco-2

Papp at 5 h, 50 µM [1] [×10⁻⁶ cm/s]	Papp A→B [2] [×10⁻⁶ cm/s]	Structure (SMILES)
0.35	1.08	CC(C)C[C@@H]1NC(=O)[C@H](Cc2ccccc2)N(C)C(=O)CN(C)C(=O)[C@H](C)NC(=O)[C@H](Cc2ccc(O)cc2)N(C)C(=O)[C@H]2CCCN2C1=O
0.16	0.1	CC(C)C[C@H]1C(=O)N2CCC[C@@H]2C(=O)N(C)[C@@H](Cc2ccc(O)cc2)C(=O)N[C@@H](C)C(=O)NCC(=O)N(C)[C@@H](Cc2ccccc2)C(=O)N1C
0.07	0.63	CC(C)C[C@H]1NC(=O)[C@H](Cc2ccccc2)NC(=O)CN(C)C(=O)[C@@H](C)N(C)C(=O)[C@H](Cc2ccc(O)cc2)NC(=O)[C@@H]2CCCN2C1=O
0.03	< 0.14	CC(C)C[C@H]1NC(=O)[C@@H](Cc2ccccc2)NC(=O)CN(C)C(=O)[C@H](C)N(C)C(=O)[C@H](Cc2ccc(O)cc2)NC(=O)[C@@H]2CCCN2C1=O
0.14	< 0.14	CC(C)C[C@H]1C(=O)N2CCC[C@H]2C(=O)N[C@@H](Cc2ccc(O)cc2)C(=O)N(C)[C@H](C)C(=O)N(C)CC(=O)N[C@H](Cc2ccccc2)C(=O)N1C
0.41	12	CC(C)C[C@@H]1NC(=O)[C@H](Cc2ccccc2)NC(=O)[C@@H](CC(C)C)N(C)C(=O)[C@H](CC(C)C)N(C)C(=O)[C@H](Cc2ccc(O)cc2)NC(=O)[C@@H]2CCCN2C1=O

Continued, compound first:

Structure (SMILES)	Papp at 5 h, 50 µM [1] [×10⁻⁶ cm/s]	Papp A→B [2] [×10⁻⁶ cm/s]
CC(C)C[C@H]1NC(=O)[C@@H](Cc2ccccc2)NC(=O)CNC(=O)[C@H](C)NC(=O)[C@H](Cc2ccc(O)cc2)NC(=O)[C@@H]2CCCN2C1=O	0.01	< 0.14
CC(C)C[C@@H]1NC(=O)[C@@H](Cc2ccccc2)NC(=O)CNC(=O)[C@@H](C)NC(=O)[C@H](Cc2ccc(O)cc2)NC(=O)[C@@H]2CCCN2C1=O	0.01	0.09
CC(C)C[C@@H]1NC(=O)[C@H](Cc2ccccc2)NC(=O)CNC(=O)[C@@H](C)NC(=O)[C@H](Cc2ccc(O)cc2)NC(=O)[C@@H]2CCCN2C1=O	0.03	< 0.14
CC(C)C[C@@H]1C(=O)N(C)[C@@H](CC(C)C)C(=O)N[C@@H](Cc2ccc(O)cc2)C(=O)N(C)[C@H](C)C(=O)N(C)CC(=O)N[C@@H](Cc2ccccc2)C(=O)N1C	0.93	4.77
C[C@@H]1NC(=O)[C@H](C)N(C)C(=O)[C@H](C)NC(=O)[C@H](C)N(C)C(=O)[C@H](C)NC(=O)[C@@H](C)NC1=O	< 0.01	< 0.14
CC(C)C[C@@H]1NC(=O)[C@H](Cc2ccccc2)NC(=O)[C@H]([C@@H](C)O)NC(=O)CNC(=O)[C@H](C)NC(=O)[C@H](Cc2ccc(O)cc2)NC1=O (cyclo(AGTFLY))	0.02	0.46
CC(C)C[C@@H]1NC(=O)CNC(=O)[C@H](Cc2ccccc2)NC(=O)[C@H](CC(N)=O)NC(=O)[C@H](Cc2ccc(O)cc2)NC(=O)[C@H](C)NC1=O (cyclo(AYNFGL))	0.01	0.02
CC(C)C[C@@H]1NC(=O)[C@H](C(C)C)NC(=O)[C@H](Cc2c[nH]c3ccccc23)NC(=O)[C@H](Cc2ccccc2)NC(=O)[C@H](Cc2ccccc2)NC(=O)[C@@H]2CCCN2C1=O (cyclo(FFWVLP))	0.37	0.24
CC(C)C[C@@H]1NC(=O)[C@H](Cc2ccccc2)NC(=O)CN(C)C(=O)[C@H](CC(C)C)N(C)C(=O)[C@H](Cc2ccc(O)cc2)NC(=O)[C@@H]2CCCN2C1=O (cyclo(FLPY[NMeL][Sar]))	0.1	0.1
CC(C)C[C@@H]1NC(=O)[C@H](Cc2ccccc2)NC(=O)[C@H]([C@@H](C)O)NC(=O)CNC(=O)[C@H]([C@@H](C)O)NC(=O)[C@H](Cc2ccc(O)cc2)NC1=O (cyclo(FLYTGT))	0.02	0.04
CC(C)C[C@@H]1NC(=O)[C@H](Cc2ccccc2)NC(=O)[C@H]([C@@H](C)O)NC(=O)CN(C)C(=O)[C@H]([C@@H](C)O)NC(=O)[C@H](Cc2ccc(O)cc2)NC1=O (cyclo(FLYT[Sar]T))	0.02	0.17
